From ChEMBL document CHEMBL1134029, “Heterocyclic derivatives of 2-(3,5-dimethylphenyl)tryptamine as GnRH receptor antagonists” (Bioorg Med Chem Lett, 2001)

biological target: T1, Gonadotropin-releasing hormone receptor (Rattus norvegicus, UniProt P30969); assay: Inhibition of rat gonadotropin-releasing hormone receptor
T1 sequence (P30969 whole entry): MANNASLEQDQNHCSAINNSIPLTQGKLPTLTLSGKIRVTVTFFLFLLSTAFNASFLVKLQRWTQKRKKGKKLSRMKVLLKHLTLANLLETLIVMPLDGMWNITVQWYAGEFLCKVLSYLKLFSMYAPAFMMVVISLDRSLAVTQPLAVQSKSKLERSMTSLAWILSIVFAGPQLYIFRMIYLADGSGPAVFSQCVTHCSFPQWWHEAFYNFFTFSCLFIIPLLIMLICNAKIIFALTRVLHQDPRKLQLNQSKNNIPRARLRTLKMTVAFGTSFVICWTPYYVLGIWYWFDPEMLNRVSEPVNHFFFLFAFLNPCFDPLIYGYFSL

SMILES	IC50
Cc1cc(C)cc(-c2[nH]c3ccccc3c2CCNCCCCc2ccccn2)c1	450 nM
Cc1cc(C)cc(-c2[nH]c3ccccc3c2CCNCCc2ccccn2)c1	2170 nM
Cc1cc(C)cc(-c2[nH]c3ccccc3c2CCNCc2ccncc2)c1	9000 nM
Cc1cc(C)cc(-c2[nH]c3ccccc3c2CCNCCCCc2cnc[nH]2)c1	450 nM
Cc1cc(C)cc(-c2[nH]c3ccccc3c2CCNCCc2ccncc2)c1	160 nM
Cc1cc(C)cc(-c2[nH]c3ccccc3c2CCNCc2ccccn2)c1	> 10000 nM
Cc1cc(C)cc(-c2[nH]c3ccccc3c2CCNCCCc2cccnc2)c1	200 nM
Cc1cc(C)cc(-c2[nH]c3ccccc3c2CCNCc2cccnc2)c1	4500 nM
Cc1cc(C)cc(-c2[nH]c3ccccc3c2CCNCCCCc2ccc3c(n2)NCCC3)c1	1260 nM
Cc1cc(C)cc(-c2[nH]c3ccccc3c2CCNCCc2cccnc2)c1	200 nM
Cc1cc(C)cc(-c2[nH]c3ccccc3c2CCNCCCCc2cncnc2)c1	270 nM
Cc1cc(C)cc(-c2[nH]c3ccccc3c2CCNCCCc2ccncc2)c1	210 nM
Cc1cc(C)cc(-c2[nH]c3ccccc3c2CCNCCCCCc2ccncc2)c1	150 nM

Stronger by IC50, values ahead:

IC50	SMILES
27 nM	Cc1cc(C)cc(-c2[nH]c3ccccc3c2CCNCCCCc2ccc(O)cc2)c1
120 nM	CC(=O)Nc1ccc(CCCCNCCc2c(-c3cc(C)cc(C)c3)[nH]c3ccccc23)cn1
50 nM	Cc1cc(C)cc(-c2[nH]c3ccccc3c2CCNCCCCCc2cccnc2)c1
40 nM	Cc1cc(C)cc(-c2[nH]c3ccccc3c2CCNCCCCc2cccnc2)c1
16 nM	Cc1cc(C)cc(-c2[nH]c3ccccc3c2CCNCCCCc2ccncc2)c1
41 nM	Cc1cc(C)cc(-c2[nH]c3ccccc3c2CCNCCCCc2ccc(N)nc2)c1
57 nM	Cc1cc(C)cc(-c2[nH]c3ccccc3c2CCNCCCCc2ccc(=O)[nH]c2)c1
7 nM	Cc1cc(C)cc(-c2[nH]c3ccccc3c2CCNCCCCc2ccc(NS(C)(=O)=O)cc2)c1
36 nM	Cc1cc(C)cc(-c2[nH]c3ccccc3c2CCNCCCCc2cnc3ccccc3c2)c1
90 nM	COc1ccc(CCCCNCCc2c(-c3cc(C)cc(C)c3)[nH]c3ccccc23)cn1
45 nM	Cc1cc(C)cc(-c2[nH]c3ccccc3c2CCNCCCCc2ccc(NS(C)(=O)=O)nc2)c1

biological target: T2, Gonadotropin-releasing hormone receptor (Homo sapiens, UniProt P30968); assay: Inhibitory activity evaluated against human Gonadotropin-releasing hormone receptor
T2 sequence (P30968 whole entry): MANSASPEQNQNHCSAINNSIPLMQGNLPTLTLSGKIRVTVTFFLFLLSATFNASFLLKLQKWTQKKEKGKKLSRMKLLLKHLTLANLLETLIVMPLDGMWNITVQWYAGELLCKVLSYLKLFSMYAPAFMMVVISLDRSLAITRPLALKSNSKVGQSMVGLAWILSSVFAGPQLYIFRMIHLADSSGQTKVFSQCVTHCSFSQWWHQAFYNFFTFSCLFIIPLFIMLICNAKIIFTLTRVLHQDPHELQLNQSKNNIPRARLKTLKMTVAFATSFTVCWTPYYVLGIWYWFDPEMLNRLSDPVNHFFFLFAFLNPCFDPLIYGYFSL

IC50	SMILES
357 nM	Cc1cc(C)cc(-c2[nH]c3ccccc3c2CCNCCCCc2ccc(O)cc2)c1
170 nM	Cc1cc(C)cc(-c2[nH]c3ccccc3c2CCNCCCCc2ccc(NS(C)(=O)=O)cc2)c1
